#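 The compound was tested at five concentrations on cells cultured in 96-well plates, with a 48-hour exposure period. Here, GI50 denotes the concentration required for 50% inhibition of growth. TGI marks complete inhibition of growth.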
# Key:
# Test in all cases: inhibition of tumour cell growth, NCI panel, 48 h
# [1] = tested on: 786-0 renal
# [2] = tested on: A498 renal
# [3] = tested on: A549 NSCLC
# [4] = tested on: ACHN renal
# [5] = tested on: CAKI-1 renal
# [6] = tested on: CCRF-CEM leukemia
# [7] = tested on: COLO 205 colon
# [8] = tested on: DLD-1 colon
# [9] = tested on: DMS 114 small cell lung
# [10] = tested on: DMS 273 small cell lung
# [11] = tested on: EKVX NSCLC
# [12] = tested on: HCC-2998 colon
# [13] = tested on: HCT-116 colon
# [14] = tested on: HCT-15 colon
# [15] = tested on: HL-60(TB) leukemia
# [16] = tested on: HOP-18 NSCLC
# [17] = tested on: HOP-62 NSCLC
# [18] = tested on: HOP-92 NSCLC
# [19] = tested on: HT29 colon
# [20] = tested on: IGROV1 ovarian
# [21] = tested on: K-562 leukemia
# [22] = tested on: KM12 colon
# [23] = tested on: KM20L2 colon
# [24] = tested on: LOX IMVI melanoma
# [25] = tested on: LXFL 529 NSCLC
# [26] = tested on: M14 melanoma
# [27] = tested on: M19-MEL melanoma
# [28] = tested on: MALME-3M melanoma
# [29] = tested on: MOLT-4 leukemia
# [30] = tested on: NCI-H226 lung
# [31] = tested on: NCI-H23 lung
# [32] = tested on: NCI-H460 lung
# [33] = tested on: OVCAR-3 ovarian
# [34] = tested on: OVCAR-4 ovarian
# [35] = tested on: OVCAR-5 ovarian
# [36] = tested on: OVCAR-8 ovarian
# [37] = tested on: RPMI-8226 leukemia
# [38] = tested on: SF-268 CNS
# [39] = tested on: SF-295 CNS
# [40] = tested on: SF-539 CNS
# [41] = tested on: SK-MEL-2 melanoma
# [42] = tested on: SK-MEL-28 melanoma
# [43] = tested on: SK-MEL-5 melanoma
# [44] = tested on: SK-OV-3 ovarian
# [45] = tested on: SN12C renal
# [46] = tested on: SNB-19 CNS
# [47] = tested on: SNB-75 CNS
# [48] = tested on: SNB-78 CNS
# [49] = tested on: SR leukemia
# [50] = tested on: SW-620 colon
# [51] = tested on: TK-10 renal
# [52] = tested on: U251 CNS
# [53] = tested on: UACC-257 melanoma
# [54] = tested on: UACC-62 melanoma
# [55] = tested on: UO-31 renal
# [56] = tested on: XF 498 CNS
# [57] = tested on: NCI-H522 lung
# [58] = tested on: RXF 393 renal
compound,measurement,setting,value
COc1cccc(/C=N/[N-]C(=O)c2ccncc2)c1[O-].[Mn+2].[OH3+],GI50,[1],5.43 µM
same,TGI,[1],> 100 µM
same,GI50,[2],27.4 µM
same,TGI,[2],94.3 µM
same,GI50,[3],5.69 µM
same,TGI,[3],> 100 µM
same,GI50,[4],3.75 µM
same,TGI,[4],47.8 µM
same,GI50,[5],8.97 µM
same,TGI,[5],> 100 µM
same,GI50,[6],1.8 µM
same,TGI,[6],6.26 µM
same,GI50,[7],4.49 µM
same,TGI,[7],> 100 µM
same,GI50,[8],5.23 µM
same,TGI,[8],> 100 µM
same,GI50,[9],14.6 µM
same,TGI,[9],58.7 µM
same,GI50,[10],6.73 µM
same,TGI,[10],73.5 µM
same,GI50,[11],9.25 µM
same,TGI,[11],> 100 µM
same,GI50,[12],19 µM
same,TGI,[12],> 100 µM
same,GI50,[13],3.63 µM
same,TGI,[13],> 100 µM
same,GI50,[14],4.14 µM
same,TGI,[14],> 100 µM
same,GI50,[15],1.45 µM
same,TGI,[15],4.19 µM
same,GI50,[16],14.7 µM
same,TGI,[16],> 100 µM
same,GI50,[17],5.86 µM
same,TGI,[17],> 100 µM
same,GI50,[18],24.7 µM
same,TGI,[18],> 100 µM
same,GI50,[19],4.7 µM
same,TGI,[19],> 100 µM
same,GI50,[20],8.29 µM
same,TGI,[20],> 100 µM
same,GI50,[21],2.9 µM
same,TGI,[21],9.69 µM
same,GI50,[22],8.31 µM
same,TGI,[22],> 100 µM
same,GI50,[23],4.51 µM
same,TGI,[23],> 100 µM
same,GI50,[24],6.59 µM
same,TGI,[24],> 100 µM
same,GI50,[25],15.3 µM
same,TGI,[25],> 100 µM
same,GI50,[26],7.96 µM
same,TGI,[26],52.4 µM
same,GI50,[27],7.54 µM
same,TGI,[27],46.4 µM
same,GI50,[28],25.5 µM
same,TGI,[28],> 100 µM
same,GI50,[29],3.24 µM
same,TGI,[29],> 100 µM
same,GI50,[30],12.4 µM
same,TGI,[30],86.5 µM
same,GI50,[31],8.12 µM
same,TGI,[31],41.1 µM
same,GI50,[32],4.34 µM
same,TGI,[32],> 100 µM
same,GI50,[33],3.51 µM
same,TGI,[33],> 100 µM
same,GI50,[34],22.1 µM
same,TGI,[34],> 100 µM
same,GI50,[35],37 µM
same,TGI,[35],88.9 µM
same,GI50,[36],3.77 µM
same,TGI,[36],> 100 µM
same,GI50,[37],6 µM
same,TGI,[37],> 100 µM
same,GI50,[38],4.97 µM
same,TGI,[38],79.5 µM
same,GI50,[39],16.2 µM
same,TGI,[39],> 100 µM
same,GI50,[40],2.51 µM
same,TGI,[40],8.97 µM
same,GI50,[41],25.6 µM
same,TGI,[41],> 100 µM
same,GI50,[42],11.2 µM
same,TGI,[42],> 100 µM
same,GI50,[43],12.3 µM
same,TGI,[43],30.3 µM
same,GI50,[44],5.94 µM
same,TGI,[44],50.2 µM
same,GI50,[45],17.8 µM
same,TGI,[45],> 100 µM
same,GI50,[46],42 µM
same,TGI,[46],> 100 µM
same,GI50,[47],26.8 µM
same,TGI,[47],> 100 µM
same,GI50,[48],> 100 µM
same,TGI,[48],> 100 µM
same,GI50,[49],3.63 µM
same,TGI,[49],> 100 µM
same,GI50,[50],4.42 µM
same,TGI,[50],> 100 µM
same,GI50,[51],18.3 µM
same,TGI,[51],> 100 µM
same,GI50,[52],5.45 µM
same,TGI,[52],> 100 µM
same,GI50,[53],5.05 µM
same,TGI,[53],96.2 µM
same,GI50,[54],3.9 µM
same,TGI,[54],23.2 µM
same,GI50,[55],3.83 µM
same,TGI,[55],26.5 µM
same,GI50,[56],12.3 µM
same,TGI,[56],86.9 µM
Cc1noc2cccc(O)c12,TGI,[1],> 100 µM
same,TGI,[2],> 100 µM
same,TGI,[3],> 100 µM
same,TGI,[4],> 100 µM
same,TGI,[5],> 100 µM
same,TGI,[6],> 100 µM
same,TGI,[7],> 100 µM
same,TGI,[8],> 100 µM
same,TGI,[9],> 100 µM
same,TGI,[10],> 100 µM
same,TGI,[11],> 100 µM
same,TGI,[12],> 100 µM
same,TGI,[13],> 100 µM
same,TGI,[14],> 100 µM
same,TGI,[15],> 100 µM
same,TGI,[16],> 100 µM
same,TGI,[17],> 100 µM
same,TGI,[18],> 100 µM
same,TGI,[19],> 100 µM
same,TGI,[20],> 100 µM
same,TGI,[21],> 100 µM
same,TGI,[22],> 100 µM
same,TGI,[23],> 100 µM
same,TGI,[24],> 100 µM
same,TGI,[25],> 100 µM
same,TGI,[26],> 100 µM
same,TGI,[27],> 100 µM
same,TGI,[28],> 100 µM
same,TGI,[29],> 100 µM
same,TGI,[30],> 100 µM
same,TGI,[31],> 100 µM
same,TGI,[32],> 100 µM
same,TGI,[57],> 100 µM
same,TGI,[33],> 100 µM
same,TGI,[34],> 100 µM
same,TGI,[35],> 100 µM
same,TGI,[36],> 100 µM
same,TGI,[58],> 100 µM
same,TGI,[38],> 100 µM
same,TGI,[39],> 100 µM
same,TGI,[40],> 100 µM
same,TGI,[41],> 100 µM
same,TGI,[42],> 100 µM
same,TGI,[43],> 100 µM
same,TGI,[44],> 100 µM
same,TGI,[45],> 100 µM
same,TGI,[46],> 100 µM
same,TGI,[47],> 100 µM
same,TGI,[48],> 100 µM
same,TGI,[50],> 100 µM
same,TGI,[51],> 100 µM
same,TGI,[52],> 100 µM
same,TGI,[53],> 100 µM
same,TGI,[54],> 100 µM
same,TGI,[55],> 100 µM
same,TGI,[56],> 100 µM
CCc1cccc(C(C)C)c1NC(=O)CC1Sc2ccccc2NC1=O (centres undefined),TGI,[1],> 100 µM
same,TGI,[2],> 100 µM
same,TGI,[3],> 100 µM
same,TGI,[4],> 100 µM
same,TGI,[5],> 100 µM
same,TGI,[6],> 100 µM
same,TGI,[7],> 100 µM
same,TGI,[8],> 100 µM
same,TGI,[9],> 100 µM
same,TGI,[10],> 100 µM
same,TGI,[11],> 100 µM
same,TGI,[12],> 100 µM
same,TGI,[13],> 100 µM
same,TGI,[14],> 100 µM
same,TGI,[15],50 µM
same,TGI,[16],> 100 µM
same,TGI,[17],> 100 µM
same,TGI,[18],95.3 µM
same,TGI,[19],> 100 µM
same,TGI,[20],> 100 µM
same,TGI,[21],> 100 µM
same,TGI,[22],> 100 µM
same,TGI,[24],> 100 µM
same,TGI,[25],> 100 µM
same,TGI,[26],> 100 µM
same,TGI,[27],> 100 µM
same,TGI,[28],> 100 µM
same,TGI,[29],92.1 µM
same,TGI,[30],> 100 µM
same,TGI,[31],> 100 µM
same,TGI,[32],> 100 µM
same,TGI,[57],97.6 µM
same,TGI,[33],> 100 µM
same,TGI,[34],> 100 µM
same,TGI,[35],> 100 µM
same,TGI,[36],> 100 µM
same,TGI,[37],> 100 µM
same,TGI,[58],96.3 µM
same,TGI,[38],> 100 µM
same,TGI,[39],> 100 µM
same,TGI,[40],> 100 µM
same,TGI,[41],> 100 µM
same,TGI,[42],> 100 µM
same,TGI,[43],> 100 µM
same,TGI,[44],> 100 µM
same,TGI,[45],> 100 µM
same,TGI,[46],> 100 µM
same,TGI,[47],> 100 µM
same,TGI,[48],> 100 µM
same,TGI,[49],94.4 µM
same,TGI,[50],> 100 µM
same,TGI,[51],> 100 µM
same,TGI,[52],> 100 µM
same,TGI,[53],> 100 µM
same,TGI,[55],> 100 µM
same,TGI,[56],> 100 µM

# Source: PubChem BioAssay (NCI)
